Series [1] in a line: Storage of anhydrous salt under humidity / atmospheric moisture. The series is classed as physicochemical. The source says:
When 4-chlorobenzenesulfonic acid is used in the above procedure the corresponding anhydrous 4-chlorobenzenesulfonic acid addition salt is obtained.

A short description of series [2]: Apparent solubility of sultamicillin salts in water and simulated gastric juice (without pepsin, pH 1.2), HPLC. To be noted: for Final pH, Simulated Gastric Juice: final pH of the solubility test in simulated gastric juice; for Final pH, Water: final pH of the solubility test in water; for Apparent Solubility, Simulated Gastric Juice: simulated gastric juice without pepsin, pH 1.2, 30 minutes agitation; for Apparent Solubility, Simulated Gastric Juice / Apparent Solubility, Water: 30 min; for Apparent Solubility, Water: 30 minutes vigorous agitation. Type of series: physicochemical. On the procedure:
The solubility of the salts in water and simulated gastric juice without pepsin (pH 1.2) were compared. Equilibrium solubility was not determined since the compounds are not entirely stable in aqueous systems for the extended time required to reach equilibrium. Therefore, the apparent solubility was determined by vigorous agitation for 30 minutes with the solvent. The resulting mixture was then filtered and the amount of compound in solution determined by high pressure liquid chromatography (HPLC).
(§1) In the solubility and stability studies above samples of the materials were assayed by HPLC using a Chromegabond C-8* column (4.6 mm internal diameter×30 cm.). The mobile phase consisted of 30% by weight acetonitrile in pH 3 phosphate buffer (0.1 M). Flow rate, 1.6 ml/minute. Detection was by UV at 230 nm.

A short description of series [3]: Stability on storage at 50° C. for three weeks, retained potency (HPLC). Type of series: physicochemical. The following applies: 30240 min. On the procedure: as §1
Series [4] in a line: Stability and solubility of sultamicillin forms. The following applies: for stability (in words): solid state / handling. The series is classed as physicochemical.
Series [5] deals with Sarcina lutea (ATCCC 9341). To be noted: no beta-lactamase; sulbactam up to 100 μg./ml.
Series [6] deals with Pasteurella histolytica (59B010). To be noted: beta-lactamase mediated resistance; high concentrations alone or combined.

Structures can show the parent of a compound that is named as a salt. Some results are limits rather than exact numbers.

Here are results for eight molecules from US4432987A, “Crystalline benzenesulfonate salts of sultamicillin” (priority 1982, dated 1984).

Turning to `CC1(C)S[C@@H]2[C@H](NC(=O)[C@H](N)c3ccccc3)C(=O)N2[C@H]1C(=O)OCOC(=O)[C@@H]1N2C(=O)C[C@H]2S(=O)(=O)C1(C)C`, the “dihydrate formation upon exposure to atmospheric moisture” value in series [1] (48 hours) was “forms a dihydrate”.

As for `CC1(C)S[C@@H]2[C@H](NC(=O)[C@H](N)c3ccccc3)C(=O)N2[C@H]1C(=O)OCOC(=O)[C@@H]1N2C(=O)C[C@H]2S(=O)(=O)C1(C)C` [4-Chlorobenzenesulfonate.2H2 O, 1,1-Dioxopenicillanoyloxymethyl 6-[D-(2-amino-2-phenylacetamido)]penicillanate 4-chlorobenzenesulfonate dihydrate], in series [2] (dihydrate), the “Final pH, Simulated Gastric Juice” value is given as 1.1; the “Final pH, Water” value is 3.8; the “Apparent Solubility, Simulated Gastric Juice” value is 6300 µg/mL; the “Apparent Solubility, Water” value is 3300 µg/mL. Further, the “potency retained upon storage” value in series [3] (listed as 4-chlorobenzenesulfonae.2H2 O, dihydrate) worked out at 100%.

Regarding `CC1(C)S[C@@H]2[C@H](NC(=O)[C@H](N)c3ccccc3)C(=O)N2[C@H]1C(=O)OCOC(=O)[C@@H]1N2C(=O)C[C@H]2S(=O)(=O)C1(C)C` [Benzenesulfonate.2H2 O, 1,1-Dioxopenicillanoyloxymethyl 6-[D-(2-amino-2-phenylacetamido)]penicillanate benzenesulfonate dihydrate], in series [2] (benzenesulfonate dihydrate), the “Final pH, Simulated Gastric Juice” value is 2.0; the Final pH, Water was 3.4; the “Apparent Solubility, Simulated Gastric Juice” value is 1800 µg/mL; the “Apparent Solubility, Water” value is 2150 µg/mL. Besides, the “potency retained upon storage” value in series [3] (benzenesulfonate dihydrate) was 97%.

Regarding `CC1(C)S[C@@H]2[C@H](NC(=O)[C@H](N)c3ccccc3)C(=O)N2[C@H]1C(=O)OCOC(=O)[C@@H]1N2C(=O)C[C@H]2S(=O)(=O)C1(C)C` [Hydrochloride, 1,1-Dioxopenicillanoyloxymethyl 6-[D-(2-amino-2-phenylacetamido)]penicillanate hydrochloride], in series [2] (hydrochloride), the “Final pH, Simulated Gastric Juice” value is recorded as 1.12; the “Final pH, Water” value is 2.0; the “Apparent Solubility, Simulated Gastric Juice” value is more than 79000 µg/mL; the “Apparent Solubility, Water” value is more than 94000 µg/mL. For the same molecule, the “potency retained upon storage” value in series [3] (listed as hydrochloride salt, hydrochloride) came to 67%. Further, the “solubility in water / aqueous systems (in words)” value in series [4] is recorded as “highly soluble in water”. Besides, the “stability in water (in words)” value in series [4] (aqueous) is given as “subject to hydrolytic decomposition”. Moreover, the “stability (in words)” value in series [4] (hydrochloride) is on record as “poor solid state stability”.

As for `CC1(C)S[C@@H]2[C@H](NC(=O)[C@H](N)c3ccccc3)C(=O)N2[C@H]1C(=O)OCOC(=O)[C@@H]1N2C(=O)C[C@H]2S(=O)(=O)C1(C)C` [Sultamicillin free base, 1,1-dioxopenicillanoyloxymethyl 6-[D-(2-amino-2-phenylacetamido)]penicillanate], the “stability (in words)” value in series [4] was “poor handling characteristics and inadequate stability”.

On to `CC1(C)S[C@@H]2[C@H](NC(=O)[C@H](N)c3ccccc3)C(=O)N2[C@H]1C(=O)O` [ampicillin], for which the “susceptibility / synergy, Sarcina lutea” value in series [5] is given as “susceptible”. Besides, in series [6], the “susceptibility / synergy, Pasteurella histolytica” value was “insensitivity”.

Turning to `CC1(C)S[C@@H]2[C@H](NC(=O)[C@H](N)c3ccccc3)C(=O)N2[C@H]1C(=O)OCOC(=O)[C@@H]1N2C(=O)C[C@H]2S(=O)(=O)C1(C)C` [anhydrous salt, Anhydrous 1,1-Dioxopenicillanoyloxymethyl 6-[D-(2-amino-2-phenylacetamido)]penicillanate benzenesulfonate], in series [1] (50% relative humidity, 30 hours, by weight), the “water content of dihydrate formed upon storage” value was determined as 4.5%.

Turning to `CC1(C)[C@H](C(=O)O)N2C(=O)C[C@H]2S1(=O)=O` [sulbactam, penicillanic acid 1,1-dioxide], the “susceptibility / synergy, Sarcina lutea” value in series [5] is recorded as “insensitive to sulbactam at concentrations as high as 100 μg./ml”. Further, the “susceptibility / synergy, Pasteurella histolytica” value in series [6] is given as “insensitivity”.
